Structures can show the parent of a compound that is named as a salt.
Target: T1, AR protein in VCaP cells (Homo sapiens, UniProt P10275)
T1 construct: endogenous in cells; host or cells: VCaP cells
T1 sequence (P10275 1-920): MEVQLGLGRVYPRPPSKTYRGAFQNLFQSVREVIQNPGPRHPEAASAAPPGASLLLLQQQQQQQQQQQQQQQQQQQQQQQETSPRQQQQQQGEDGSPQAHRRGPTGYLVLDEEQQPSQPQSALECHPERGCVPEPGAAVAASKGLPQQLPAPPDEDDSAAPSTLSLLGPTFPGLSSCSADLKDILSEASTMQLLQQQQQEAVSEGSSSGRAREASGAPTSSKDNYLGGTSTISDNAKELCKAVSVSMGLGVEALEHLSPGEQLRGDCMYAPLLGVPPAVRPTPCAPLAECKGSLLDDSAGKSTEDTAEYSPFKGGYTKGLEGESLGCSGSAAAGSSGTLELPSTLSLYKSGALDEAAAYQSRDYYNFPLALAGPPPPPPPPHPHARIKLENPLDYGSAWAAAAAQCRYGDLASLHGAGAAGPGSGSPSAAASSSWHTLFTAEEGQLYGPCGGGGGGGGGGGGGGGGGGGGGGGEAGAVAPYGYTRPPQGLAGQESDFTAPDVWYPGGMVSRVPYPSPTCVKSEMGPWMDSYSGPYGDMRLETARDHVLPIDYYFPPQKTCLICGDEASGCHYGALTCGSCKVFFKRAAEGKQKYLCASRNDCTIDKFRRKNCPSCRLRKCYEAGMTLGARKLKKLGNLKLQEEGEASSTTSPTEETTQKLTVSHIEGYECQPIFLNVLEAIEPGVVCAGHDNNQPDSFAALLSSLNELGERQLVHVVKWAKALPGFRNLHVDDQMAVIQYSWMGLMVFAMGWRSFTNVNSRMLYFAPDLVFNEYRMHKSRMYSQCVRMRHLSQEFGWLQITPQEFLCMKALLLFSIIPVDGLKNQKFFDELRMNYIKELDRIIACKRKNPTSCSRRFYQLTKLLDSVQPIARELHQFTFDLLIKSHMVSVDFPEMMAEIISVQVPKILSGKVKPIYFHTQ
Experiment: VCAP AR Degradation Assay
Type: cell-based
Conditions: 24 h, AR ELISA; for DC50: concentration at 50% of DMSO control (50% AR degradation); for Y: lowest measured AR level normalized to DMSO control
Procedure: VCAP AR Degradation Assay. Test compounds were pre-dispensed into a Corning CellBind 96-well clear bottom plate (Cat #3300) using an acoustic dispenser to make a 10-point concentration series at 1:3 dilution for each compound. The final top concentration of each compound was 5 μM. DMSO at a final concentration of 0.1% was used as a control. VCaP cells cultured in DMEM with 8% fetal bovine serum (FBS) were seeded at 50K cells per well in a 200 μL volume into the compound plate and incubated at 37° C. in a CO2 incubator for 24 h. The medium was carefully removed from the cells and the plate was placed on ice. One hundred μL of ice-cold 1× cell lysis buffer from Cell Signaling Technologies (Cat #9803) was added to each well of the cells and the plate was incubated at 4° C. on a shaker for 1 h. Fifteen μL of cell lysate was used for AR ELISA detection using a PathScan Total Sandwich AR ELISA kit (Cell Signaling Technology, Cat #12580). AR levels in compound-treated wells were normalized to that of DMSO control and expressed as percent of control (PoC) (y). A Four Parameter Logistic Model (Sigmoidal Dose-Response Model) was used to determine the compound's DC50, and EC50, using the following equation: y=(A+((B−A)/(1+((C/x)^D)))) • A=YMin (lowest AR level normalized to DMSO control in response to compound treatment, as determined by curve fit) • B=YMax (maximum AR level as determined by curve fit) • C=EC50 • D=Hill Slope • x=compound concentration • EC50=the concentration of compound when y=(YMax−YMin)/2 • DC50=the concentration of the compound when y=50% of DMSO control (50% AR degradation) • y=AR protein level normalized to DMSO control
The lowest measured AR level normalized to DMSO control in response to compound treatment, termed Y value, was used to characterize the compound-mediated AR degradation efficiency.

CC1(C)C(=O)N(c2cnc(C#N)c(C(F)(F)F)c2)C(=S)N1[C@H]1CC[C@H](OCCN2CCN(CC(=O)Nc3cccc(N[C@@H]4CCC(=O)NC4=O)c3)[C@@H](C(F)(F)F)C2)CC1 [Cmpd 42, 2-((R)-4-(2-(((trans)-4-(3-(6-Cyano-5-(trifluoromethyl)pyridin-3-yl)-5,5-dimethyl-4-oxo-2-thioxoimidazolidin-1-yl)cyclohexyl)oxy)ethyl)-2-(trifluoromethyl)piperazin-1-yl)-N-(3-(((R)-2,6-dioxopiperidin-3-yl)amino)phenyl)acetamide hydrochloride]
DC50: ≤ 5 nM | Y: * (0<Y≤15%)

C[C@@H]1C[C@H](OCCC[C@H]2CC[C@H](N3C(=S)N(c4cnc(C#N)c(C(F)(F)F)c4)C(=O)C3(C)C)CC2)C[C@H](C)N1CC(=O)Nc1cccc(NC2CCC(=O)NC2=O)c1 (stereo partly drawn) [Cmpd 33, 2-((2R,4r,6S)-4-(3-((trans)-4-(3-(6-Cyano-5-(trifluoromethyl)pyridin-3-yl)-5,5-dimethyl-4-oxo-2-thioxoimidazolidin-1-yl)cyclohexyl)propoxy)-2,6-dimethylpiperidin-1-yl)-N-(3-((2,6-dioxopiperidin-3-yl)amino)phenyl)acetamide hydrochloride]
DC50: 5 to 10 nM | Y: ** (15%<Y≤20%)

C[C@@H]1CN(CCC[C@H]2CC[C@H](N3C(=S)N(c4ccc(C#N)c(C(F)(F)F)c4)C(=O)C3(C)C)CC2)C[C@H](C)N1CC(=O)Nc1cc(F)cc(NC2CCC(=O)NC2=O)c1 (stereo partly drawn) [Cmpd 38, 2-((2R,6S)-4-(3-((trans)-4-(3-(4-Cyano-3-(trifluoromethyl)phenyl)-5,5-dimethyl-4-oxo-2-thioxoimidazolidin-1-yl)cyclohexyl)propyl)-2,6-dimethylpiperazin-1-yl)-N-(3-((2,6-dioxopiperidin-3-yl)amino)-5-fluorophenyl)acetamide]
DC50: 5 to 10 nM | Y: * (0<Y≤15%)

CC1(C)C(=O)N(c2ccc(C#N)c(C(F)(F)F)c2)C(=S)N1[C@H]1CC[C@H](OCCN2CCN(CC(=O)Nc3cccc(NC4CCC(=O)NC4=O)c3)[C@H](C(F)(F)F)C2)CC1 (stereo partly drawn) [Cmpd 40, 2-((S)-4-(2-(((trans)-4-(3-(4-Cyano-3-(trifluoromethyl)phenyl)-5,5-dimethyl-4-oxo-2-thioxoimidazolidin-1-yl)cyclohexyl)oxy)ethyl)-2-(trifluoromethyl)piperazin-1-yl)-N-(3-((2,6-dioxopiperidin-3-yl)amino)phenyl)acetamide]
DC50: 10 to 100 nM | Y: *** (25%<Y<50%)

C[C@@H]1CN(CCO[C@H]2CC[C@H](N3C(=S)N(c4cnc(C#N)c(C(F)(F)F)c4)C(=O)C3(C)C)CC2)C[C@H](C)N1CC(=O)Nc1cccc(NC2CCC(=O)NC2=O)c1 (stereo partly drawn) [Cmpd 5, 2-((2R,6S)-4-(2-((trans-4-(3-(6-Cyano-5-(trifluoromethyl)pyridin-3-yl)-5,5-dimethyl-4-oxo-2-thioxoimidazolidin-1-yl)cyclohexyl)oxy)ethyl)-2,6-dimethylpiperazin-1-yl)-N-(3-((2,6-dioxopiperidin-3-yl)amino)phenyl)acetamide hydrochloride]
DC50: ≤ 5 nM | Y: *** (25%<Y<50%)

C[C@@H]1CN(CCC[C@H]2CC[C@H](N3C(=S)N(c4ccc(C#N)c(C(F)(F)F)c4)C(=O)C3(C)C)CC2)C[C@H](C)N1CC(=O)Nc1cccc(NC2CCC(=O)NC2=O)c1 (stereo partly drawn) [Cmpd 2, 2-((2R,6S)-4-(3-(trans-4-(3-(4-Cyano-3-(trifluoromethyl)phenyl)-5,5-dimethyl-4-oxo-2-thioxoimidazolidin-1-yl)cyclohexyl)propyl)-2,6-dimethylpiperazin-1-yl)-N-(3-((2,6-dioxopiperidin-3-yl)amino)phenyl)acetamide]
DC50: 10 to 100 nM | Y: * (0<Y≤15%)

CC1(C)C(=O)N(c2cnc(C#N)c(C(F)(F)F)c2)C(=S)N1[C@H]1CC[C@H](OCCC2CCN(CC(=O)Nc3cccc(NC4CCC(=O)NC4=O)c3)CC2(F)F)CC1 (stereo partly drawn) [Cmpd 46, 2-(4-(2-(((trans)-4-(3-(6-Cyano-5-(trifluoromethyl)pyridin-3-yl)-5,5-dimethyl-4-oxo-2-thioxoimidazolidin-1-yl)cyclohexyl)oxy)ethyl)-3,3-difluoropiperidin-1-yl)-N-(3-((2,6-dioxopiperidin-3-yl)amino)phenyl)acetamide hydrochloride]
DC50: ≤ 5 nM | Y: * (0<Y≤15%)

C[C@@H]1CN(CCCO[C@H]2CC[C@H](N3C(=S)N(c4ccc(C#N)c(Cl)c4)C(=O)C3(C)C)CC2)C[C@H](C)N1CC(=O)Nc1cccc(NC2CCC(=O)NC2=O)c1 (stereo partly drawn) [Cmpd 9, 2-((2R,6S)-4-(3-((trans-4-(3-(3-Chloro-4-cyanophenyl)-5,5-dimethyl-4-oxo-2-thioxoimidazolidin-1-yl)cyclohexyl)oxy)propyl)-2,6-dimethylpiperazin-1-yl)-N-(3-((2,6-dioxopiperidin-3-yl)amino)phenyl)acetamide hydrochloride]
DC50: ≤ 5 nM | Y: *** (25%<Y<50%)

C[C@@H]1CN(CCC[C@H]2CC[C@H](N3C(=S)N(c4ccc(C#N)c(C(F)(F)F)c4)C(=O)C3(C)C)CC2)C[C@H](C)N1CC(=O)Nc1cc(NC2CCC(=O)NC2=O)ccc1F (stereo partly drawn) [Cmpd 39, 2-((2R,6S)-4-(3-((trans)-4-(3-(4-Cyano-3-(trifluoromethyl)phenyl)-5,5-dimethyl-4-oxo-2-thioxoimidazolidin-1-yl)cyclohexyl)propyl)-2,6-dimethylpiperazin-1-yl)-N-(5-((2,6-dioxopiperidin-3-yl)amino)-2-fluorophenyl)acetamide]
DC50: 10 to 100 nM | Y: *** (25%<Y<50%)

CC1(C)C(=O)N(c2cnc(C#N)c(C(F)(F)F)c2)C(=S)N1[C@H]1CC[C@H](OCCN2CCN(CC(=O)Nc3cc(C#N)cc(NC4CCC(=O)NC4=O)c3)[C@@H](C(F)(F)F)C2)CC1 (stereo partly drawn) [Cmpd 31, N-(3-Cyano-5-((2,6-dioxopiperidin-3-yl)amino)phenyl)-2-((R)-4-(2-(((trans)-4-(3-(6-cyano-5-(trifluoromethyl)pyridin-3-yl)-5,5-dimethyl-4-oxo-2-thioxoimidazolidin-1-yl)cyclohexyl)oxy)ethyl)-2-(trifluoromethyl)piperazin-1-yl)acetamide]
DC50: ≤ 5 nM | Y: * (0<Y≤15%)

CC1(C)C(=O)N(c2cnc(C#N)c(C(F)(F)F)c2)C(=S)N1[C@H]1CC[C@H](OCCN2CCN(CC(=O)Nc3cc(Cl)cc(NC4CCC(=O)NC4=O)c3)[C@@H](C(F)(F)F)C2)CC1 (stereo partly drawn) [Cmpd 26, N-(3-Chloro-5-((2,6-dioxopiperidin-3-yl)amino)phenyl)-2-((R)-4-(2-(((trans)-4-(3-(6-cyano-5-(trifluoromethyl)pyridin-3-yl)-5,5-dimethyl-4-oxo-2-thioxoimidazolidin-1-yl)cyclohexyl)oxy)ethyl)-2-(trifluoromethyl)piperazin-1-yl)acetamide]
DC50: 5 to 10 nM | Y: * (0<Y≤15%)

C[C@@H]1C[C@@H](CCO[C@H]2CC[C@H](N3C(=S)N(c4ccc(C#N)c(C(F)(F)F)c4)C(=O)C3(C)C)CC2)C[C@H](C)N1CC(=O)Nc1cccc(NC2CCC(=O)NC2=O)c1 (stereo partly drawn) [Cmpd 15, 2-((2R,4s,6S)-4-(2-((trans-4-(3-(4-Cyano-3-(trifluoromethyl)phenyl)-5,5-dimethyl-4-oxo-2-thioxoimidazolidin-1-yl)cyclohexyl)oxy)ethyl)-2,6-dimethylpiperidin-1-yl)-N-(3-((2,6-dioxopiperidin-3-yl)amino)phenyl)acetamide hydrochloride]
DC50: 5 to 10 nM | Y: * (0<Y≤15%)
